Laboratory results from US5438046A, “N-heteroaryl substituted derivatives of propanamide useful in the treatment of cardiovascular diseases” (Zambon Group S.p.A., priority 1993, dated 1995).
pIC50: −log10 of the molar value.

Target: T1, endothelin converting enzyme (ECE) (Oryctolagus cuniculus, UniProt A0A5F9CTJ8)
T1 construct: The left saphenous artery was removed and cleaned of the surrounding tissue, cut into 2-3 mm length rings; from tissue; host or cells: left saphenous artery rings of male New Zealand rabbits
T1 sequence (A0A5F9CTJ8 1-783): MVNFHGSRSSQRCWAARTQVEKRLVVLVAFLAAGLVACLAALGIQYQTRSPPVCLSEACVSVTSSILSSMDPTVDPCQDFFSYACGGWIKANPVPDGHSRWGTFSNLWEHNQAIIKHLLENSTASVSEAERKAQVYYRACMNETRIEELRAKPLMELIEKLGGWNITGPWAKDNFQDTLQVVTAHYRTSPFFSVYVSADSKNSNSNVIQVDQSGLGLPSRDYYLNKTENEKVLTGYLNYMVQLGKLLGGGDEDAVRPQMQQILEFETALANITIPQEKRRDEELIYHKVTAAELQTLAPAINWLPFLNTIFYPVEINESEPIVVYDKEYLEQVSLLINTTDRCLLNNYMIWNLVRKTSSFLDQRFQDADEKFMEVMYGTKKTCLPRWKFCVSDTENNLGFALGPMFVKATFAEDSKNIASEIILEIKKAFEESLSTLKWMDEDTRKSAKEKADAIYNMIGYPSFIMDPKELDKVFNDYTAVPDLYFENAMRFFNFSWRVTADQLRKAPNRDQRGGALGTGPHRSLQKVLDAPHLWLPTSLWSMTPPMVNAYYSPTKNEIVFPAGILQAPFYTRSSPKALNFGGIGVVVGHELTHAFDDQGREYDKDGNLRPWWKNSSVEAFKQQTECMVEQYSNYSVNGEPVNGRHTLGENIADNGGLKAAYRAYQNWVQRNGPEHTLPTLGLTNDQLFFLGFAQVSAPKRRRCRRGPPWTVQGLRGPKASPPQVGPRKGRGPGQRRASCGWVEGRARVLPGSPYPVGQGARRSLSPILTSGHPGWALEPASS
Assay: In vitro ECE-inhibitory activity (inhibition of Big endothelin response in rabbit left saphenous artery rings)
Assay type: cell-based, New Zealand rabbits
Conditions: human Big endothelin 3×10^-8 M, compound contact 30 minutes
Experimental: Male New Zealand rabbits (2.5-3 Kg) were sacrificed with an excess of pentobarbital and blood was drawn. […] This solution was composed of (mM); NaCl, 118; KCl, 4.7; CaCl2, 2.5; KH2 PO4, 1.2; MgSO4, 1.2; NaHCO3, […]; glucose, 11. The preparations were kept under tension and readjusted to 1 g during the equilibration period (1 hour).
After said period, the preparations were exposed to a submaximal concentration of norepinephrine 1 μM which was repeated every 30 minutes until the response was stable. A concentration of acetylcholine 10 μM on the contraction of norepinephrine verified the presence of the endothelium.
After 30 minutes from the last contraction due to norepinephrine, a concentration of human Big endothelin 3×10^-8 M was administered. […] The percentage of ECE-inhibition was expressed as IC50 value (nM).

- pIC50: 7.30
SMILES: CC(C)C[C@H](NP(=O)(O)O[C@@H]1O[C@@H](C)[C@H](O)[C@@H](O)[C@H]1O)C(=O)N[C@@H](Cc1c[nH]c2ccccc12)C(=O)O [Phosphoramidon, N-[N-[[(6-deoxy-α-L-mannopyranosyl)oxy]hydroxyphos-phinyl]-l-leucyl]-L-tryptophan]
